In patent US20140155397A1, “EMT SIGNATURES AND PREDICTIVE MARKERS AND METHOD OF USING THE SAME” (Board of Regents, priority 2011, published 2014):
Like-named read-outs stand apart in the source and are kept apart here.

How the values were obtained:
MER = target: T1, MER (Homo sapiens, UniProt Q12866); experiment: Protein kinase panel; assay type: biochemical
T1 sequence (Q12866 21-999): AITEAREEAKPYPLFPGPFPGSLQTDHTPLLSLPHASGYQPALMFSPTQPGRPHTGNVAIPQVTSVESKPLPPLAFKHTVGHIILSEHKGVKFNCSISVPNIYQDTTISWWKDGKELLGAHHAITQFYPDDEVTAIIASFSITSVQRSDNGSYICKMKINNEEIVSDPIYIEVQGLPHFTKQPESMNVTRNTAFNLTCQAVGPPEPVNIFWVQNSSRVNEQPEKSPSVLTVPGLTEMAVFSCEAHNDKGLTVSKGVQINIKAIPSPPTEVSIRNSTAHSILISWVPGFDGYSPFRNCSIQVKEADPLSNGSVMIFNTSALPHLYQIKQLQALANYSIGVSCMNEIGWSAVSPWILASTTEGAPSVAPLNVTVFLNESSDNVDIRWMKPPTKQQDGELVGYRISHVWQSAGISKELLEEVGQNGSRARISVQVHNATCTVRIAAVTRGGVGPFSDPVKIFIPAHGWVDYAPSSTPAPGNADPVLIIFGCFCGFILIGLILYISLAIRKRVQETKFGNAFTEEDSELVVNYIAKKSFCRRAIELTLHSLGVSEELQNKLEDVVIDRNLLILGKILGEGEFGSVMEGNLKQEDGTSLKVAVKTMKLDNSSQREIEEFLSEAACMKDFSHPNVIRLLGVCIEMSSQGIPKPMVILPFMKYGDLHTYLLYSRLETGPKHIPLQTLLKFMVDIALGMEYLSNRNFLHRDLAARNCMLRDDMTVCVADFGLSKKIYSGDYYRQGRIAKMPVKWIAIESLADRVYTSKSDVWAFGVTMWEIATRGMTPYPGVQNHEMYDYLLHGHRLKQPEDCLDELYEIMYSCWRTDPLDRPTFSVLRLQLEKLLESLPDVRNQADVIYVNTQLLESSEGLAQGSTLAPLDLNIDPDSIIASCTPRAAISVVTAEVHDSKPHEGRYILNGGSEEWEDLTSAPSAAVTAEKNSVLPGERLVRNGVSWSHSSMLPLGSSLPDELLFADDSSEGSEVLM
Text: (§1) Purified recombinant AXL kinase was used to screen a library of structures with appropriate drug-like scaffolds to identify potential inhibitors. Hits from the screen were confirmed and r analyzed by selection criteria including Lipinski rules. One pyrrolopyrimidine-based compound was selected for structure-activity relationship efforts. Optimization of this scaffold and subsequent evaluation led to the generation of compound SG1-7079 as the lead candidate inhibitor (FIG. 10). […] SGI-7079 was screened against a panel of protein kinases to determine both selectivity and biochemical potency.

H157 = experiment: Proliferation, CellTiter-Glo Luminescent Cell Viability; assay type: cell-based; details: single agent
Text: (§2) Average values were used for analysis as described. […] Chou T. C., et al., Quantitative Analysis of Dose-Effect Relationships: The Combined Effects of Multiple Drugs or Enzyme Inhibitors. Adv Enzyme Regul.

H460 = experiment: as above; assay type: cell-based; details: single agent
Text: as §2

H1299 = experiment: as above; assay type: cell-based; details: single agent
Text: as §2

Calu-1 = experiment: as above; assay type: cell-based; details: single agent
Text: as §2

A549 = experiment: as above; assay type: cell-based; details: single agent
Text: as §2

H2882 = experiment: as above; assay type: cell-based; details: single agent
Text: as §2

[1] = tested on: Cells expressing high levels of Axl; experiment: Proliferation of six mesenchymal cell lines expressing high levels of Axl (summary); assay type: cell-based; details: single agent
Text: as §2

NSCLC cell lines = experiment: Drug sensitivity (growth inhibition, MTS assay) of epithelial versus mesenchymal NSCLC cell lines; assay type: cell-based
Text: as §2
The EMT signature was derived in 54 DNA fingerprinted NSCLC cell lines profiled on Affymetrix U133A, B, and Plus2.0 arrays and tested on the Illumina WGv2 and WGv3 platforms and in an independent set of head and neck cancer lines (HNC). E-cadherin and other protein levels were quantified by reverse phase protein array and correlated with the first principal component of the EMT signature. IC50s were determined for NSCLC cell lines by MTS assay. Response to erlotinib was evaluated in patients treated in the BATTLE clinical trial using eight-week disease […] and progression free survival.

AXL [2] = target: T2, AXL (Homo sapiens, UniProt P30530); experiment: Inhibition of purified recombinant AXL kinase; assay type: biochemical
T2 sequence (P30530 26-894): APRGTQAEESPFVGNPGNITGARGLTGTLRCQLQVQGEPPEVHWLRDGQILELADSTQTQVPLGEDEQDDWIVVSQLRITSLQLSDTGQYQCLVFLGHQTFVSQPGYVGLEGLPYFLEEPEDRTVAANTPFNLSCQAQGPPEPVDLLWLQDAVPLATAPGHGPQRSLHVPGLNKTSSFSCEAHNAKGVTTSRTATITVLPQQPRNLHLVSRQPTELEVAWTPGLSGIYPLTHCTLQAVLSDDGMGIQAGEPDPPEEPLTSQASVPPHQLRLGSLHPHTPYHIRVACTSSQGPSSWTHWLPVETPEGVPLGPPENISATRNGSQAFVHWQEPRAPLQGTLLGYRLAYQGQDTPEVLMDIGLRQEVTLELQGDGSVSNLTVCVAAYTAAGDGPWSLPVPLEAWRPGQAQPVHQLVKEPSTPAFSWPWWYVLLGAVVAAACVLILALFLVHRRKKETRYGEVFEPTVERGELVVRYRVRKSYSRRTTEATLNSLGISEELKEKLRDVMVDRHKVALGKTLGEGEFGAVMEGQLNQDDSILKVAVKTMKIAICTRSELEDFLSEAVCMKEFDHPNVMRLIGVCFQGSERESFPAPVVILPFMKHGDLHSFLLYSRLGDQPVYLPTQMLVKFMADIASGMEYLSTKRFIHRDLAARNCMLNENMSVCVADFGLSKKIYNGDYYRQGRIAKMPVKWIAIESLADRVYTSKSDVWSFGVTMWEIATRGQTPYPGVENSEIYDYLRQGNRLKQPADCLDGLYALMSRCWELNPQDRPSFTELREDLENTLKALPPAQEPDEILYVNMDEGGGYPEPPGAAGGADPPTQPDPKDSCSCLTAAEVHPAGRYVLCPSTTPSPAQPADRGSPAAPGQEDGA
Text: as §1

AXL [3] = target: T2, AXL; experiment: Gas6 ligand-induced tyrosine phosphorylation of human AXL expressed in HEK293T cells; assay type: cell-based; design: expressed in transfected cells; host or cells: HEK293T; details: read-out: EC50, inhibition of Gas6 ligand-induced tyrosine phosphorylation of AXL

- Inhibition of MER (MER): similarly as AXL
- IC50 (H157): 0.74 µM
- IC50 (H460): 2.01 µM
- IC50 (H1299): 1.74 µM
- IC50 (Calu-1): 2.44 µM
- IC50 (A549): 0.92 µM
- IC50 (H2882): 4.29 µM
- Ki (AXL [2]): 0.0057 µM
- EC50 (AXL [3]): 0.1 µM
SMILES: Cc1c[nH]c2nc(Nc3ccc(N4CCN(C)CC4)c(F)c3)nc(-c3cccc(CC#N)c3)c12 [SGI-7079]
- IC50 ([1]; read-out: IC50 range across cell lines): 0.74 to 4.29 µM
- IC50 ([1]; read-out: Mean IC50 across cell lines): 1.3 µM
- Sensitivity of mesenchymal cells (NSCLC cell lines; SGI-7079 versus erlotinib, p<0.001 by Wilcoxon test): relatively sensitive
- Fold more sensitive, mesenchymal versus epithelial cells (NSCLC cell lines; p-value 0.17, not statistically significant): 1.3 fold
